Data: patent US20080214583A1, “7H-Pyrrolo[2,3-D]Pyrimidine Derivatives, As Well As Their Therapeutically Acceptable Salts, Pharmaceutical Preparations Containing Them And Process For Production The Active Agent” (priority 2004, published 2008)

| SMILES | melting point [°C] |
| --- | --- |
| COc1cc(C(=NN)c2ncnc3c2c(C)c(C)n3Cc2ccccc2)ccc1O [Example 33, 4-[(7-benzyl-5,6-dimethyl-7H-pyrrolo[2,3-d]pyrimidine-4-yl)-hydrazonomethyl]-2-methoxy-phenol] | 220 to 221 |
| Cc1c(C)n(Cc2ccccc2)c2ncnc(NN=C3C(=O)Nc4ccc(Cl)cc43)c12 [Example 48, 3-[(7-benzyl-5,6-dimethyl-7H-pyrrolo[2,3-d]pyrimidine-4-yl)-hydrazono]-5-chloro-1,3-dihydro-indole-2-on] | 302 to 303 |
| Cc1c(C)n(-c2cccc(Cl)c2)c2ncnc(NN=C3C(=O)Nc4ccc(OC(F)(F)F)cc43)c12 [Example 44, 3-{[5,6-dimethyl-7-(3-chloro-phenyl)-7H-pyrrolo[2,3-d]pyrimidine-4-yl]-hydrazono}-5-trifluoromethoxy-1,3-dihydro-indole-2-on] | 262 to 276 |
| Cc1c(C)n(-c2cccc(Cl)c2)c2ncnc(NN=C3C(=O)Nc4c(Cl)ccc(Cl)c43)c12 [Example 41, 4,7-dichloro-3-{[5,6-dimethyl-7-(3-chloro-phenyl)-7H-pyrrolo[2,3-d]pyrimidine-4-yl]-hydrazono}-1,3-dihydro-indole-2-on] | 284 to 285 |
| Cc1c(C)n(CCCN2CCOCC2)c2ncnc(Nc3cc(C(C)(C)C)nn3-c3cccc([N+](=O)[O-])c3)c12 [Example 16, [5-tert.-butyl-2-(3-nitro-phenyl)-2H-pyrazole-3-yl]-[5,6-dimethyl-7-(3-morpholine-4-yl-propyl)-7H-pyrrolo[2,3-d]pyrimidine-4-yl]-amine] | 120.9 to 125.3 |
| N#Cc1c(-c2ccccc2)c(-c2ccccc2)n(Cc2ccccc2)c1Nc1ncnc2c1c1ccccc1n2Cc1ccccc1 [Example 66, 1-benzyl-2-(9-benzyl-9H-1,3,9-triaza-fluorene-4-yl-amino)-4,5-diphenyl-1H-pyrrol-3-carbonitrile] | > 90 |
| Cc1c(C)n(Cc2ccccc2)c2ncnc(NN=Cc3ccc(C(F)(F)F)cc3)c12 [Example 26, N-(7-benzyl-5,6-dimethyl-7H-pyrrolo[2,3-d]pyrimidine-4-yl)-N′-(4-trifluoromethyl-benzylidene)-hydrazine] | 165 to 166 |
| COc1ccccc1C=NNc1ncnc2c1c(C)c(C)n2Cc1ccccc1 [Example 17, N-(7-benzyl-5,6-dimethyl-7H-pyrrolo[2,3-d]pyrimidine-4-yl)-N′-(2-methoxy-benzylidene)-hydrazine] | 214 to 216 |
| Cc1c(C)n(Cc2ccccc2)c2ncnc(C(=NN)c3ccc(O)c([N+](=O)[O-])c3)c12 [Example 28, 4-[(7-benzyl-5,6-dimethyl-7H-pyrrolo[2,3-d]pyrimidine-4-yl)-hydrazonomethyl]-2-nitro-phenol] | 202 to 205 |
| Cc1c(C#N)c(Nc2ncnc3c2c(C)c(C)n3Cc2ccccc2)n(Cc2ccccc2)c1C [Example 75, 1-benzyl-2-(7-benzyl-5,6-dimethyl-7H-pyrrolo[2,3-d]pyrimidine-4-yl-amino)-4,5-dimethyl-1H-pyrrol-3-carbonitrile] | 236 to 239.1 |
| Cc1cc(C(=NN)c2ncnc3c2c(C)c(C)n3Cc2ccccc2)cc(C)c1O [Example 29, 4-[(7-benzyl-5,6-dimethyl-7H-pyrrolo[2,3-d]pyrimidine-4-yl)-hydrazonomethyl]-2,6-dimethyl-phenol] | 237 to 240 |
| Cc1c(C#N)c(Nc2ncnc3c2c2ccccc2n3Cc2ccccc2)n(-c2cccc(Cl)c2)c1C [Example 64, 2-(9-benzyl-9H-1,3,9-triaza-fluorene-4-yl-amino)-1-(3-chloro-phenyl)-4,5-dimethyl-1H-pyrrol-3-carbonitrile] | 252.2 to 253.1 |
| Cc1c(C)n(Cc2ccccc2)c2ncnc(NN=Cc3cccc([N+](=O)[O-])c3)c12 [Example 32, N-(7-benzyl-5,6-dimethyl-7H-pyrrolo[2,3-d]pyrimidine-4-yl)-N′-(3-nitro-benzylidene)-hydrazine] | 103 to 109.5 |
| Cc1c(C)n(CCCN2CCOCC2)c2ncnc(NN=Cc3ccc(O)c([N+](=O)[O-])c3)c12 [Example 13, 4-{[5,6-dimethyl-7-(3-morpholine-4-yl-propyl)-7H-pyrrolo[2,3-d]pyrimidine-4-yl]hydrazonomethyl}-2-nitro-phenol] | 158.8 to 161.5 |
| Cc1c(C)n(Cc2ccccc2)c2ncnc(NN=C3C(=O)Nc4c(Cl)ccc(Cl)c43)c12 [Example 50, 3-[(7-benzyl-5,6-dimethyl-7H-pyrrolo[2,3-d]pyrimidine-4-yl)-hydrazono]-4,7-dichloro-1,3-dihydro-indole-2-on] | 298 |
| Cc1c(C)n(Cc2ccccc2)c2ncnc(NN=C3C(=O)Nc4ccccc43)c12 [Example 46, 3-[(7-benzyl-5,6-dimethyl-7H-pyrrolo[2,3-d]pyrimidine-4-yl)-hydrazono]-1,3-dihydro-indole-2-on] | 292 to 293 |

| SMILES | melting point [°C] |
| --- | --- |
| Cc1c(C)n(-c2cccc(Cl)c2)c2ncnc(Nc3c(C#N)c(-c4ccccc4)c(-c4ccccc4)n3Cc3ccccc3)c12 [Example 62, 1-benzyl-2-[5,6-dimethyl-7-(3-chloro-phenyl)-7H-pyrrolo[2,3-d]pyrimidine-4-yl-amino]-4,5-diphenyl-1H-pyrrol-3-carbonitrile] | 187.4 to 189.3 |
| Cc1c(C)n(-c2cccc(Cl)c2)c2ncnc(NN=C3C(=O)Nc4ccc(Br)cc43)c12 [Example 38, 5-bromo-3-{[5,6-dimethyl-7-(3-chloro-phenyl)-7H-pyrrolo[2,3-d]pyrimidine-4-yl]-hydrazono}-1,3-dihydro-indole-2-on] | 292 to 294.5 |
| Cc1c(C)n(Cc2ccccc2)c2ncnc(C(=NN)c3ccc(N(C)C)cc3)c12 [Example 31, {4-[(7-benzyl-5,6-dimethyl-7H-pyrrolo[2,3-d]pyrimidine-4-yl)-hydrazonomethyl]-phenyl}-dimethyl-amine] | 219 to 221 |
| Cc1c(C)n(-c2cccc(Cl)c2)c2ncnc(NN=C3C(=O)Nc4ccccc43)c12 [Example 39, 3-{[5,6-dimethyl-7-(3-chloro-phenyl)-7H-pyrrolo[2,3-d]pyrimidine-4-yl]-hydrazono}-1,3-dihydro-indole-2-on] | 281 to 293 |
| Cc1c(C)n(Cc2ccccc2)c2ncnc(C(=NN)c3ccc(C#N)cc3)c12 [Example 35, 4-[(7-benzyl-5,6-dimethyl-7H-pyrrolo[2,3-d]pyrimidine-4-yl)-hydrazonomethyl]-benzonitrile] | 223.5 to 225 |
| Cc1ccc2c(c1)C(=NNc1ncnc3c1c(C)c(C)n3-c1cccc(Cl)c1)C(=O)N2 [Example 42, 3-{[5,6-dimethyl-7-(3-chloro-phenyl)-7H-pyrrolo[2,3-d]pyrimidine-4-yl]-hydrazono}-5-methyl-1,3-dihydro-indole-2-on] | 302 to 303 |
| Cc1c(C)n(Cc2ccccc2)c2ncnc(NN=C3C(=O)Nc4ccc(Br)cc43)c12 [Example 45, 3-[(7-benzyl-5,6-dimethyl-7H-pyrrolo[2,3-d]pyrimidine-4-yl)-hydrazono]-5-bromo-1,3-dihydro-indole-2-on] | 288 to 290 |
| Cc1c(C)n(Cc2ccccc2)c2ncnc(Nc3c(C#N)c(-c4ccccc4)c(-c4ccccc4)n3Cc3ccccc3)c12 [Example 74, 1-benzyl-2-(7-benzyl-5,6-dimethyl-7H-pyrrolo[2,3-d]pyrimidine-4-yl-amino)-4,5-diphenyl-1H-pyrrol-3-carbonitrile] | 197.1 to 197.6 |
| Cc1c(C)n(-c2cccc(Cl)c2)c2ncnc(Nc3cc(C(C)(C)C)nn3-c3cccc([N+](=O)[O-])c3)c12 [Example 4, [5-tert.-butyl-2-(3-nitro-phenyl)-2H-pyrazole-3-yl]-[7-(3-chlorophenyl)-5,6-dimethyl-7H-pyrrolo[2,3-d]pyrimidine-4-yl]-amine] | 189 to 190 |
| Cc1c(C#N)c(Nc2ncnc3c2c(C)c(C)n3-c2cccc(Cl)c2)n(Cc2ccccc2)c1C [Example 63, 1-benzyl-2-[5,6-dimethyl-7-(3-chloro-phenyl)-7H-pyrrolo[2,3-d]pyrimidine-4-yl-amino]-4,5-dimethyl-1H-pyrrol-3-carbonitrile] | 228.1 to 229 |
| COc1cc(C(=NN)c2ncnc3c2c(C)c(C)n3-c2cccc(Cl)c2)ccc1O [Example 24, 4-{[5,6-dimethyl-7-(3-chloro-phenyl)-7H-pyrrolo[2,3-d]pyrimidine-4-yl]-hydrazonomethyl}-2-methoxy-phenol] | 146 to 187 |
| Cc1c(C)n(-c2cccc(Cl)c2)c2ncnc(C(=NN)c3ccc(O)c([N+](=O)[O-])c3)c12 [Example 21, 4-{[5,6-dimethyl-7-(3-chloro-phenyl)-7H-pyrrolo[2,3-d]pyrimidine-4-yl]-hydrazonomethyl}-2-nitro-phenol] | 204.2 to 206.5 |
| Cc1c(C)n(Cc2ccccc2)c2ncnc(NN=C3C(=O)Nc4cc(Cl)cc(Cl)c43)c12 [Example 49, 3-[(7-benzyl-5,6-dimethyl-7H-pyrrolo[2,3-d]pyrimidine-4-yl)-hydrazono]-4,6-dichloro-1,3-dihydro-indole-2-on] | 299 |
| Cc1c(C)n(-c2cccc(Cl)c2)c2ncnc(NN=C3C(=O)Nc4ccc(Cl)cc43)c12 [Example 40, 5-chloro-3-{[5,6-dimethyl-7-(3-chloro-phenyl)-7H-pyrrolo[2,3-d]pyrimidine-4-yl]-hydrazono}-1,3-dihydro-indole-2-on] | 314 to 315 |
| Cc1c(C)n(-c2cccc(Cl)c2)c2ncnc(NN=C3C(=O)Nc4ccc(F)cc43)c12 [Example 43, 3-{[5,6-dimethyl-7-(3-chloro-phenyl)-7H-pyrrolo[2,3-d]pyrimidine-4-yl]-hydrazono}-5-fluoro-1,3-dihydro-indole-2-on] | 271 to 279 |
